Columns and labels:
subjects = experiment: Phase 1 single dose study: safety and tolerability
Description: A phase 1 study with Compound 1 was conducted with single dosing at 0.1 mg, 0.35 mg, 1 mg, 3 mg, and 5 mg. Compound 1 was administered as the L-arginine salt.

[1] = tested on: peripheral blood lymphocyte (PBL) counts; experiment: Phase 1 single dose study: peripheral blood lymphocyte counts; format: in vivo, human
Description: Compound 1 was administered as the L-arginine salt.

male Sprague-Dawley rats = settings: cited from earlier work

## O=C(O)C[C@H]1CCc2c1[nH]c1ccc(OCc3ccc(C4CCCC4)c(C(F)(F)F)c3)cc21 [Compound 1, (R)-2-(7-(4-cyclopentyl-3-(trifluoromethyl)benzyloxy)-1,2,3,4-tetrahydrocyclopenta [b]indol-3-yl)acetic acid]
subjects; in vivo
  Vital signs, ECGs, pulmonary function tests, ophthalmoscopy, clinical laboratory tests: no other clinically significant safety issues
subjects; single dosing
  Maximum tolerated dose: 3 mg
subjects; single dosing 0.1 to 5 mg
  Deaths or serious adverse events: no deaths or serious adverse events
[1]; single dose
  Persistence of PBL nadir: 24 h
  Time after dosing by which total PBL counts were reduced: 2 to 4 h
  Time of PBL nadir: ≤ 8 h
[1]; single dose 3 mg
  PBL counts reduced by: ~40%
[1]; single dose 5 mg
  PBL counts reduced by: ~55%
[1]; single dose, after the nadir
  Recovery of PBL counts to baseline: 4 days
[1]; single dosing at 3 and 5 mg
  Absolute number of peripheral blood B cells, T cells, NK cells, and all T cell subsets except TEM cells: dose responsive decline
Male Sprague-Dawley rats
  Bradycardia: no or substantially no bradycardia

Source: patent publication US12377071B2, “Methods of treating conditions related to the S1P1 receptor” (Arena Pharmaceuticals, Inc., priority 2015, dated 2025)
